Reference: US20250345295A1, “LMK235 COMPOSITIONS AND METHODS” (UNM Rainforest Innovations, priority 2024, published 2025)
“Also recorded” adds a separate entry of the source.

What was measured:
FRICT-ION mice = assay: Cold probe (10° C.) sensitivity test, FRICT-ION model; format: in vivo, mouse; settings: 5 mg/kg, vs FRICT-ION+vehicle
Source text: The FRICT-ION chronic neuropathic pain model combines the chemical irritation of chromic gut suture with some physical compression of the maxillary branch (V2) of the trigeminal nerve. FRICT-ION model was induced in 9-week-old mice anesthetized briefly with isoflurane (2-3%). Intraoral surgical incision was made with a small scalpel puncture at the buccal cheek crease. A piece of chromic gut suture (3 mm length, 4-0) was placed parallel to the infraorbital nerve (ION) and pushed into the tight space to follow the trigeminal nerve as it passes into the foramen rotundum of the skull. The model simulates blunt force traumatic injury to the nerve, residual wound debris, or other irritation.
On the day of FRICT-ION model induction in BALBc mice, LMK235 was administered and treatment was continued for seven days. Withdrawal thresholds were determined weekly with von Frey fiber stimulation on the snout. Cold sensitivity on the snout and anxiety were tested once prior to experiment end in week 8-9.
Mechanical and cold sensitivity was modified for face as previously described (Montera M A, Westlund K N, Bio-protocol2020 April 20; 10(8):e3591-e3591; Lyons et al., Neuroscience 2015 Jun. 4; 295:126-138; Ma et al., Mol Brain 2012 Dec. 28; 5:44; Montera et al., Channels (Austin). 2021 December; 15(1):31-37). […]

[1] = tested on: small (<30 μm) TG neurons from FRICT-ION mice; assay: Whole-cell patch-clamp electrophysiology, TG neurons from FRICT-ION mice; format: cell-based, mouse; settings: 13 μM for one hour vs 0.1% DMSO
Protocol: (§1) The excitability of TG neurons is directly linked to the pathophysiology of trigeminal neuropathic pain. In order to determine the effect of LMK235 on TG neurons from FRICT-ION mice, whole-cell patch-clamp electrophysiological recordings were made from small (<30 μm) TG neurons in the presence of LMK235 (13 μM) or vehicle (0.1% DMSO). TG neurons were obtained from FRICT-ION mice at three weeks post injury or naïve mice. The TG neurons were treated for one hour in vitro with either LMK235 or vehicle control prior to recording (FIG. 7).
(§2) Neurons with a diameter of <30 μm were identified by infrared differential interference contrast (IR-DIC) imaging with a microscope connected to an Olympus digital camera. Current clamp recordings were performed using a Molecular Devices Multiclamp 700B (Scientifica, UK). Signals were filtered at 5 KHz, acquired at 50 KHz using a Molecular Devices 1550B converter (Scientifica, UK) and recorded using Clampex 11 software (Molecular Devices, Scientifica, UK). Electrodes were pulled with a Zeitz puller (Werner Zeitz, Martinsreid, Germany) from borosilicate thick glass (GC150F, Sutter Instruments). Electrode resistance was 5-8 MΩ. Bridge balance was applied to all recordings. Intracellular solution contained (in mM) 125 K-gluconate, 6 KCl, 10 HEPES, 0.1 EGTA, 2 Mg-ATP, pH 7.3 with KOH, and osmolarity of 290-310 mOsm. Artificial cerebrospinal fluid (aCSF) contained (in mM) 113 NaCl, 3 KCl, 25 NaHCO3, 1 NaH2PO4, 2 CaCl2), 2 MgCl2, and 11-glucose. For whole-cell current clamp recordings, to evaluate the basic input-output action potential frequency response to hyperpolarization and depolarization, DC current was injected from 0 pA to +200 pA in 10-pA increments for a duration of 500 milliseconds at the cell's intrinsic resting membrane potential. Data acquisition was sampled at 20 kHz and filtered at 2.4 kHz. Recordings with a series resistance greater than 20 MΩ were discarded, and series resistance was compensated to 70%. In response to a −100 pA hyperpolarizing pulse with 500 millisecond duration, voltage sag amplitude was measured. Sag ratio was calculated using the following equation as described previously (Fan et al., Front Cell Neurosci 2016 Mar. 24; 10:74):
(§3) where Vpeak is the maximum voltage deflection and Vss is the steady state voltage at the end of the hyperpolarizing pulse.
(§4) Male mice were euthanized three weeks after inducing the FRICT-ION model. The TG were dissected, minced, and dissociated in an enzymatic combination containing sterile, calcium-free, and magnesium-free HBSS (Cat #14170112, Gibco), papain suspension (32.7 U/mgP, Cat #LS003126; Worthington, Lakewood, NJ), L-Cysteine (Cat #C7352-25g, Sigma), and saturated bicarbonate (Cat #S5761-500g, Sigma) solution. […]

[2] = tested on: small (<30 μm) TG neurons from naïve mice; assay: Whole-cell patch-clamp electrophysiology, TG neurons from naïve mice; format: cell-based, mouse; settings: 13 μM for one hour vs 0.1% DMSO
Protocol: as §1, §2, §3, §4

Structure (SMILES): Cc1cc(C)cc(C(=O)NOCCCCCC(=O)NO)c1 [LMK235, N-[[6-(Hydroxyamino)-6-oxohexyl]oxy]-3,5-dimethyl-benzamide]
- cold hypersensitivity (10° C. cold probe on snout) (FRICT-ION mice): significantly improved; also recorded: reduced
- distribution of high (>200 pA) vs low (<200 pA) threshold TG neurons [1]: higher proportion of high threshold (>200 pA) neurons
- resting membrane potential (RMP) [1]: not significantly altered; also recorded: no significant differences
- rheobase [1]: not significantly altered; also recorded: no significant differences
- sag ratio [1]: significantly lower; also recorded: reduced
- electrophysiological properties [2]: not significantly altered
- resting membrane potential (RMP) [2]: no significant differences
- rheobase [2]: no significant differences
- sag ratio [2]: no effect
